From PMC4503722, “Novel Phenotypic Outcomes Identified for a Public Collection of Approved Drugs from a Publicly Accessible Panel of Assays” (PLoS ONE, 2015)
pEC50, pIC50: −log10 of the molar value. Counter-ions that a name gives are not always drawn. Like-named read-outs stand apart in the source and are kept apart here.

Columns and labels:
[1] = test system: endothelial tube formation in co-cultures of ECFCs and ADSCs treated with VEGF; test: cells; assay type: cell-based, human
NCI-H716 cells = test: cells; assay type: cell-based, Human
[2] = test system: HCT116 cells treated with a GSK3β inhibitor; test: cells; assay type: cell-based
[3] = test system: nuclear β-catenin in C2C12 cells; test: cells; assay type: cell-based
INS-1E cells = test: cells; assay type: cell-based, rat
hFLT3 = target: T1, hFLT3 (Homo sapiens, UniProt P36888); test: Cerep LANCE kinase assay hFLT3 (S1 assay 35); assay type: biochemical; conditions: read-out: FLT3
T1 construct: purchased Cerep (LANCE kinase assay platform, contract assay)
T1 sequence (P36888 27-993): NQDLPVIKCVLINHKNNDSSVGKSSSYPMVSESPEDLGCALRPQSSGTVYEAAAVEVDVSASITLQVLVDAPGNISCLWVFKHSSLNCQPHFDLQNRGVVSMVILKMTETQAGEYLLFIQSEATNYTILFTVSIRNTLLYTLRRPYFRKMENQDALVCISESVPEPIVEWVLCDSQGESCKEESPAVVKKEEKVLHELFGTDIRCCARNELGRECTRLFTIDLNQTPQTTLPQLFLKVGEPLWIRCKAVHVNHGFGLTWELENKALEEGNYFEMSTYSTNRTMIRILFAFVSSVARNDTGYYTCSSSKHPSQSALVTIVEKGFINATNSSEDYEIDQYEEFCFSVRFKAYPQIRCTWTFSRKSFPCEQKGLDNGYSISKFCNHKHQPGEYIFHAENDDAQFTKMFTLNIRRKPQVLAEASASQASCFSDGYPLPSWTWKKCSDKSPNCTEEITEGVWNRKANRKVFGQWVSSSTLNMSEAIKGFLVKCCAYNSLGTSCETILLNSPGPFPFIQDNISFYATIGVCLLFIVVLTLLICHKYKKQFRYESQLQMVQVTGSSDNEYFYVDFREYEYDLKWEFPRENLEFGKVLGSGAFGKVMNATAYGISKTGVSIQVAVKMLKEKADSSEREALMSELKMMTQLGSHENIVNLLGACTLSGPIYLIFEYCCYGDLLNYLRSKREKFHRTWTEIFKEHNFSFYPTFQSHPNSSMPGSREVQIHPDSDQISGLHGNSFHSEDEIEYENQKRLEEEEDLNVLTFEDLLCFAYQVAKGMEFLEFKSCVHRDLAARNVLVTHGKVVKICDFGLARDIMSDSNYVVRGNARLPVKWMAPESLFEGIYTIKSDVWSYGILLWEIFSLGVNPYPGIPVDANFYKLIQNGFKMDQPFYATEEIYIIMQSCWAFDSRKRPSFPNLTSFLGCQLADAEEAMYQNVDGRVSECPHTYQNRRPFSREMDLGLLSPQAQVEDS

HCT116 = test: cells; assay type: cell-based
SW480 = test: cells; assay type: cell-based
DLD-1 = test: cells; assay type: cell-based
hp70S6K1 (RPS6KB1) = target: T2, hp70S6K1 (RPS6KB1) (Homo sapiens, UniProt P23443); test: Cerep LANCE kinase assay hp70S6K1 (S1 assay 31); assay type: biochemical; conditions: read-out: p70S6K1
T2 construct: purchased Cerep (LANCE kinase assay platform, contract assay)
T2 sequence (P23443 whole entry): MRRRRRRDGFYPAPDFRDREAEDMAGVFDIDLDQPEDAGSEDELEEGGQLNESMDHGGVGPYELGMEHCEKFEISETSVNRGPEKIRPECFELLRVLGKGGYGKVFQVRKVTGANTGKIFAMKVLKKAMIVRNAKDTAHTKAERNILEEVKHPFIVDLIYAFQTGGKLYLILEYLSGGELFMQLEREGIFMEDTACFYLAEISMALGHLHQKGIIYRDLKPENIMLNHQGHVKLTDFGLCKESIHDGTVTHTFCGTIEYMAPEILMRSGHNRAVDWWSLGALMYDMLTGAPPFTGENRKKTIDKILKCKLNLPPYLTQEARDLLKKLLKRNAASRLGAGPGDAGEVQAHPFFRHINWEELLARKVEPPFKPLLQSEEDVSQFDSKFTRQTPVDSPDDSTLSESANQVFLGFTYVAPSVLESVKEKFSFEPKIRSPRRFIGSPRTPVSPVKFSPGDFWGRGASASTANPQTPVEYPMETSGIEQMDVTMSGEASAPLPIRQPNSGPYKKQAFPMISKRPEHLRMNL

hJAK2 = target: T3, hJAK2 (Homo sapiens, UniProt O60674); test: Cerep LANCE kinase assay hJAK2 (S1 assay 33); assay type: biochemical; conditions: read-out: JAK2
T3 construct: purchased Cerep (LANCE kinase assay platform, contract assay)
T3 sequence (O60674 whole entry): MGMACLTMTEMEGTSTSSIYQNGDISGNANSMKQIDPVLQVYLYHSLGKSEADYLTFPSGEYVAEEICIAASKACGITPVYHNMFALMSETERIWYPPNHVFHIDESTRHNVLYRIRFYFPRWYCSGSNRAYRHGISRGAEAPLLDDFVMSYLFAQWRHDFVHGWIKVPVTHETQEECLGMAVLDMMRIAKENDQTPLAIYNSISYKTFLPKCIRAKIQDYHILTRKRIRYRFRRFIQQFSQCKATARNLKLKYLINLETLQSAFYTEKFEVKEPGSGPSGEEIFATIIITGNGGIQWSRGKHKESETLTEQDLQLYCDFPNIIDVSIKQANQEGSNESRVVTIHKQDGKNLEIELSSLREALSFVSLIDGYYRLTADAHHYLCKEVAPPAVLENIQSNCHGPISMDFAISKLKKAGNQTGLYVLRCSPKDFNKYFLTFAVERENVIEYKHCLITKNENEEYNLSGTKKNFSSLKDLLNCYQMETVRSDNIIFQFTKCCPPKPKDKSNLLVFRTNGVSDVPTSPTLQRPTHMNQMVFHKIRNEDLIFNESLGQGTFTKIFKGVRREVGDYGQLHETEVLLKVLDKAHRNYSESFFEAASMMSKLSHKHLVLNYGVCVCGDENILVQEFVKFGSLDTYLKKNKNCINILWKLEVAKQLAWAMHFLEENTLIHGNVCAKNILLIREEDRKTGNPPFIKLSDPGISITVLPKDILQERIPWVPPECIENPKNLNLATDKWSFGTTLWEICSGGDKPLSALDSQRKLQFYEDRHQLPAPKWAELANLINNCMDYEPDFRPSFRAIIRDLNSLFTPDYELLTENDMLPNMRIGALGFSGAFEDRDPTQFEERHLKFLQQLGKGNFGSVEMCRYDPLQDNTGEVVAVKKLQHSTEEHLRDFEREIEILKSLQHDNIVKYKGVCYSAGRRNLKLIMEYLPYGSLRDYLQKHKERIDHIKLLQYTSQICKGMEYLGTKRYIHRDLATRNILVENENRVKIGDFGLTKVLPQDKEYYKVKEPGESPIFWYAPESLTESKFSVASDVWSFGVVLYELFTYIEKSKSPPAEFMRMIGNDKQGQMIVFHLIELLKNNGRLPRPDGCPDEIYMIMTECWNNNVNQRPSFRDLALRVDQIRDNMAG

HeLa cells = test: cells; assay type: cell-based; conditions: read-out: CellCycle G2/M
hKDR = target: T4, hKDR (Homo sapiens, UniProt P35968); test: Cerep LANCE kinase assay hKDR (S1 assay 32); assay type: biochemical; conditions: read-out: KDR
T4 construct: purchased Cerep (LANCE kinase assay platform, contract assay)
T4 sequence (P35968 20-1356): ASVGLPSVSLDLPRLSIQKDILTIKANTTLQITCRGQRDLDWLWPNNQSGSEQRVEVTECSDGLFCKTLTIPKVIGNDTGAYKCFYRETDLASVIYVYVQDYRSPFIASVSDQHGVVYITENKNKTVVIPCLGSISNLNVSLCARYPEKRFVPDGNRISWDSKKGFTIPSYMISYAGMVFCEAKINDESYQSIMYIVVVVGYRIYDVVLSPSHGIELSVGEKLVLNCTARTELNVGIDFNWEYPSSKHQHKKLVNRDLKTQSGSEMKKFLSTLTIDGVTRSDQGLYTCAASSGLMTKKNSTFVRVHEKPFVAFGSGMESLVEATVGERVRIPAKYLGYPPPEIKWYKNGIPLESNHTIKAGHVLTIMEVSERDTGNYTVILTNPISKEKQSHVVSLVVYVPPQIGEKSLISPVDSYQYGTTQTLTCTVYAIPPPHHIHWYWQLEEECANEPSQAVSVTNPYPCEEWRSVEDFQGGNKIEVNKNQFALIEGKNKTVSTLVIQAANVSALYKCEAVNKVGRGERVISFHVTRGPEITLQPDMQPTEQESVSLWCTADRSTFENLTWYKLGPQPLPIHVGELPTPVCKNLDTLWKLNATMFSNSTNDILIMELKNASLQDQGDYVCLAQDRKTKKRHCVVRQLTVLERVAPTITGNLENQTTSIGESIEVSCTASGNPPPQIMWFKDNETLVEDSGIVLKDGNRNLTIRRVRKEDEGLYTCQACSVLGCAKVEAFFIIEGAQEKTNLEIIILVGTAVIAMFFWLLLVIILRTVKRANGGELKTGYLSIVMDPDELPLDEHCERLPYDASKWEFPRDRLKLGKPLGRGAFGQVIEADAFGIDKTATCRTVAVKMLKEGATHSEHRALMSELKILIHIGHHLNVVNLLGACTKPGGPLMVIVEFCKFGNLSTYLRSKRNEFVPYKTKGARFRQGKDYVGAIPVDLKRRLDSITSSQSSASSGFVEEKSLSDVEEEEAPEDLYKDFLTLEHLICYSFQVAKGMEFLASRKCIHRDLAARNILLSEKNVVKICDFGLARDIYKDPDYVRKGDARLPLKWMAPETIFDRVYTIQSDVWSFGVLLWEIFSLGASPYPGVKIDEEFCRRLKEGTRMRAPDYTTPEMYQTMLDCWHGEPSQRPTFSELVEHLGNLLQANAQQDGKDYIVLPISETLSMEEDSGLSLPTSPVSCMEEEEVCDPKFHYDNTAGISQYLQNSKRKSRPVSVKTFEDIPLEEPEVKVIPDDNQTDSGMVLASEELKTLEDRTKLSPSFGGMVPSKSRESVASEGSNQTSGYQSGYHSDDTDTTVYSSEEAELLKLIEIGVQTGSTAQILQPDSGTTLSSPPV

hGSK3b = target: T5, hGSK3b (Homo sapiens, UniProt P49841); test: Cerep LANCE kinase assay hGSK3b (S1 assay 34); assay type: biochemical; conditions: read-out: GSK3b
T5 construct: purchased Cerep (LANCE kinase assay platform, contract assay)
T5 sequence (P49841 whole entry): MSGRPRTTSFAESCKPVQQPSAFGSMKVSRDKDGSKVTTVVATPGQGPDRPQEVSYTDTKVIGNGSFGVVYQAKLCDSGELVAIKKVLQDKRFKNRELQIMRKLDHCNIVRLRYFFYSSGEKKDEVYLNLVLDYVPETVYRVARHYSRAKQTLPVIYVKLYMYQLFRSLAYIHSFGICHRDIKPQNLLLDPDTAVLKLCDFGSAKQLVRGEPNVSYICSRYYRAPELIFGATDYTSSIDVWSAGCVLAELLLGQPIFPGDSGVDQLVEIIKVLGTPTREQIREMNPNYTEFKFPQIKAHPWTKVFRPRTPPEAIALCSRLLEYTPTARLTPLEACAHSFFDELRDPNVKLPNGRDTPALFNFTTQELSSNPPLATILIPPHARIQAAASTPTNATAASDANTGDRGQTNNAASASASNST

[4] = Homo sapiens, read-out: Anti-Angiogenesis
[5] = Homo sapiens, NCI-H716, read-out: GLP 1 Secretion
[6] = Homo sapiens, HCT-116, read-out: GSK3b inh pretreated_Viability ATP HCT116
[7] = Mus musculus, C2C12, read-out: Wnt Pathway
[8] = Rattus norvegicus, INS-1E, read-out: Insulin Secretion
[9] = Homo sapiens, HCT-116, read-out: Basal_Viability ATP HCT116
[10] = Homo sapiens, SW480, read-out: Basal_Viability ATP SW480
[11] = Homo sapiens, DLD-1, read-out: Basal_Viability ATP DLD-1

`Cc1cc(O)c2ccccc2c1O` [2-Methyl-1,4-naphthalenediol] was tested, and the pIC50 ([1]; IC50 / EC50; endothelial tube area, ADSC/ECFC co-culture; read-out: Anti-Angiogenesis) was 5.31, the pEC50 (NCI-H716 cells; IC50 / EC50; NCI-H716; read-out: GLP 1 Secretion) was < 5.00 and the pIC50 ([2]; GSK3b inhibitor pretreated, read-out: GSK3b inh pretreated_Viability ATP HCT116) was 5.02. The pEC50 ([3]; IC50 / EC50; C2C12 beta-catenin translocation; read-out: Wnt Pathway) was 5.76, the pEC50 (INS-1E cells; IC50 / EC50; INS-1E; read-out: Insulin Secretion) was < 5.00 and the pIC50 (hFLT3) was < 4.70. The pIC50 (HCT116; basal, read-out: Basal_Viability ATP HCT116) was 5.83, the pIC50 (SW480; basal, read-out: Basal_Viability ATP SW480) was 5.15 and the pIC50 (DLD-1; basal, read-out: Basal_Viability ATP DLD-1) was 5.00. For the same compound, the pIC50 (hp70S6K1 (RPS6KB1)) was < 4.70, the pIC50 (hJAK2) was < 4.70 and the pEC50 (HeLa cells; IC50 / EC50, HeLa) was < 5.00. The pIC50 (hKDR) was 4.74 and the pIC50 (hGSK3b) was 4.72.

In the case of `CCC(C)n1ncn(-c2ccc(N3CCN(c4ccc(OCC5COC(Cn6cncn6)(c6ccc(Cl)cc6Cl)O5)cc4)CC3)cc2)c1=O` (centres unmarked) [itraconazole], the pIC50 [1, 4] was 5.81, the pEC50 (NCI-H716 cells; [5]) was < 5.00 and the pIC50 [2, 6] was 5.06. The pEC50 [3, 7] was < 5.00, the pEC50 (INS-1E cells; [8]) was < 5.00 and the pIC50 (hFLT3) was < 4.70. The pIC50 (HCT116; [9]) was 5.05, the pIC50 (SW480; [10]) was 5.36 and the pIC50 (DLD-1; [11]) was < 4.70. For the same compound, the pIC50 (hp70S6K1 (RPS6KB1)) was < 4.70, the pIC50 (hJAK2) was < 4.70 and the pEC50 (HeLa cells; Homo sapiens, HeLa) was < 5.00. For the same compound, the pIC50 (hKDR) was < 4.70 and the pIC50 (hGSK3b) was < 4.70.

With `Nc1ncnc2c1ncn2CCOCP(=O)(O)O` [Adefovir] the pIC50 [1, 4] was 6.41, the pEC50 (NCI-H716 cells; [5]) was < 5.00 and the pIC50 [2, 6] was 6.23. For the same compound, the pEC50 [3, 7] was 6.41, the pEC50 (INS-1E cells; [8]) was < 5.00 and the pIC50 (hFLT3) was < 4.70. For the same compound, the pIC50 (HCT116; [9]) was 5.05, the pIC50 (SW480; [10]) was 5.56 and the pIC50 (DLD-1; [11]) was 5.57. The pIC50 (hp70S6K1 (RPS6KB1)) was < 4.70, the pIC50 (hJAK2) was < 4.70 and the pEC50 (HeLa cells; Homo sapiens, HeLa) was < 5.00. The pIC50 (hKDR) was < 4.70 and the pIC50 (hGSK3b) was < 4.70.

In the case of `Cc1ccccc1C(=O)Nc1ccc(C(=O)N2CCCC(N(C)C)c3ccccc32)cc1` (centres unmarked) [Mozavaptan], the pIC50 ([1]; Homo sapiens, IC50 / EC50; endothelial tube area, ADSC/ECFC co-culture; read-out: Anti-Angiogenesis) was < 5.00, the pEC50 (NCI-H716 cells; Homo sapiens; IC50 / EC50; NCI-H716; read-out: GLP 1 Secretion) was < 5.00 and the pIC50 [2, 6] was < 4.70. The pEC50 ([3]; Mus musculus, C2C12, IC50 / EC50; C2C12 beta-catenin translocation; read-out: Wnt Pathway) was 5.34, the pEC50 (INS-1E cells; Rattus norvegicus; IC50 / EC50; INS-1E; read-out: Insulin Secretion) was < 5.00 and the pIC50 (hFLT3) was < 4.70. For the same compound, the pIC50 (HCT116; Homo sapiens, HCT-116, basal, read-out: Basal_Viability ATP HCT116) was 5.12, the pIC50 (SW480; Homo sapiens, SW480, basal, read-out: Basal_Viability ATP SW480) was 5.46 and the pIC50 (DLD-1; Homo sapiens, DLD-1, basal, read-out: Basal_Viability ATP DLD-1) was 4.89. The pIC50 (hp70S6K1 (RPS6KB1)) was < 4.70, the pIC50 (hJAK2) was < 4.70 and the pEC50 (HeLa cells; Homo sapiens, HeLa, IC50 / EC50, HeLa) was < 5.00. The pIC50 (hKDR) was < 4.70 and the pIC50 (hGSK3b) was < 4.70.

In the case of `CCN(CC)CCNc1ccc(CO)c2sc3ccccc3c(=O)c12` [Hycanthonum], the pIC50 ([1]; read-out: Anti-Angiogenesis) was 5.08, the pEC50 (NCI-H716 cells; S2 Table; module primary assay; 20 / 20.1 codes per legend; read-out: GLP 1 Secretion) was < 5.00 and the pIC50 ([2]; HCT116 pretreated with GSK3b inhibitor, read-out: GSK3b inh pretreated_Viability ATP HCT116) was < 4.70. For the same compound, the pEC50 ([3]; read-out: Wnt Pathway) was 5.57, the pEC50 (INS-1E cells; S2 Table; module primary assay; 20 / 20.1 codes per legend; read-out: Insulin Secretion) was < 5.00 and the pIC50 (hFLT3; kinase assay) was < 4.70. The pIC50 (HCT116; basal, HCT116, read-out: Basal_Viability ATP HCT116) was 5.07, the pIC50 (SW480; basal, SW480, read-out: Basal_Viability ATP SW480) was 5.16 and the pIC50 (DLD-1; basal, DLD-1, read-out: Basal_Viability ATP DLD-1) was < 4.70. For the same compound, the pIC50 (hp70S6K1 (RPS6KB1); kinase assay) was 4.77, the pIC50 (hJAK2; kinase assay) was < 4.70 and the pEC50 (HeLa cells; S2 Table, HeLa, 20 = no response at highest concentration) was < 5.00. The pIC50 (hKDR; kinase assay) was < 4.70 and the pIC50 (hGSK3b; kinase assay) was < 4.70.

For `COC(=O)Nc1nc2ccc(C(=O)c3cccs3)cc2[nH]1` [Nocodazole], the pIC50 ([1]; Homo sapiens; read-out: Anti-Angiogenesis) was 6.99, the pEC50 (NCI-H716 cells; Homo sapiens, NCI-H716; read-out: GLP 1 Secretion) was < 5.00 and the pIC50 ([2]; Homo sapiens, HCT-116, HCT116 pretreated with GSK3b inhibitor, read-out: GSK3b inh pretreated_Viability ATP HCT116) was 5.95. The pEC50 ([3]; Mus musculus, C2C12; read-out: Wnt Pathway) was 7.36, the pEC50 (INS-1E cells; Rattus norvegicus, INS-1E; read-out: Insulin Secretion) was < 5.00 and the pIC50 (hFLT3; kinase assay) was < 4.70. The pIC50 (HCT116; Homo sapiens, HCT-116, basal, HCT116, read-out: Basal_Viability ATP HCT116) was 5.97, the pIC50 (SW480; Homo sapiens, SW480, basal, SW480, read-out: Basal_Viability ATP SW480) was < 4.70 and the pIC50 (DLD-1; Homo sapiens, DLD-1, basal, DLD-1, read-out: Basal_Viability ATP DLD-1) was 5.78. The pIC50 (hp70S6K1 (RPS6KB1); kinase assay) was < 4.70, the pIC50 (hJAK2; kinase assay) was < 4.70 and the pEC50 (HeLa cells; Homo sapiens, HeLa, S2 Table, HeLa, 20 = no response at highest concentration) was 7.66. It also gave a pIC50 (hKDR; kinase assay) of 5.18 and a pIC50 (hGSK3b; kinase assay) of 4.70.

In the case of `[O-][n+]1ccccc1SSc1cccc[n+]1[O-]` [Dipyrithione magnesium sulfate], the pIC50 ([1]; read-out: Anti-Angiogenesis) was 6.14, the pEC50 (NCI-H716 cells; read-out: GLP 1 Secretion) was < 5.00 and the pIC50 ([2]; read-out: GSK3b inh pretreated_Viability ATP HCT116) was < 4.70. For the same compound, the pEC50 ([3]; read-out: Wnt Pathway) was 6.88, the pEC50 (INS-1E cells; read-out: Insulin Secretion) was < 5.00 and the pIC50 (hFLT3) was < 4.70. For the same compound, the pIC50 (HCT116; read-out: Basal_Viability ATP HCT116) was 4.70, the pIC50 (SW480; read-out: Basal_Viability ATP SW480) was < 4.70 and the pIC50 (DLD-1; read-out: Basal_Viability ATP DLD-1) was < 4.70. The pIC50 (hp70S6K1 (RPS6KB1)) was < 4.70, the pIC50 (hJAK2) was < 4.70 and the pEC50 (HeLa cells) was < 5.00. For the same compound, the pIC50 (hKDR) was < 4.70 and the pIC50 (hGSK3b) was < 4.70.
